Results on five compounds are retold here after ChEMBL document CHEMBL1681635, “II. SAR studies of pyridyl-piperazinyl-piperidine derivatives as CXCR3 chemokine antagonists” (Bioorg Med Chem Lett, 2011).

For data set [1], the target named is T1, C-X-C chemokine receptor type 3 (Mus musculus, UniProt O88410).
T1 sequence (O88410 whole entry): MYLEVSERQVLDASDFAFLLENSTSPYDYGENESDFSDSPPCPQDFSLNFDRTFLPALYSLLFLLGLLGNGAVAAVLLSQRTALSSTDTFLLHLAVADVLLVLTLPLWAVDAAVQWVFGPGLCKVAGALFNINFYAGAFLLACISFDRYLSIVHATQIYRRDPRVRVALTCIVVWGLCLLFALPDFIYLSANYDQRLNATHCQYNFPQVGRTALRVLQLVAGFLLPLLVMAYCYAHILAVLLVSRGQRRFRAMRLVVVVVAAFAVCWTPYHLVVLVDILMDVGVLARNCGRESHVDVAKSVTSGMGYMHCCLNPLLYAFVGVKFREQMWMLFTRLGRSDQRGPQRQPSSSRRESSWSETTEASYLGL
The experiment in a line: Antagonist activity at mouse CXCR3. The format is functional.

Data set [2] deals with T2, C-X-C chemokine receptor type 3 (Rattus norvegicus, UniProt Q9JII9).
T2 sequence (Q9JII9 whole entry): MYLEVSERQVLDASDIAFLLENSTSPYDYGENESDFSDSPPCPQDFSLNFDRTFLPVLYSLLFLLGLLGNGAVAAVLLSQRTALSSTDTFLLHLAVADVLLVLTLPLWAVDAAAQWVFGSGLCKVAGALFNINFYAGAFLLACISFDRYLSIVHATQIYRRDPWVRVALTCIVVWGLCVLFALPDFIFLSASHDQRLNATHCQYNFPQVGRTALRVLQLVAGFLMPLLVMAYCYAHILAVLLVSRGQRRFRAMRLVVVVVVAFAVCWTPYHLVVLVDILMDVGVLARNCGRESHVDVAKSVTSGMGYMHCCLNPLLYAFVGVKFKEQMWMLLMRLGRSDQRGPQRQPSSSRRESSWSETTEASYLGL
The experiment in a line: Antagonist activity at rat CXCR3. The format is functional.

The subject of the next data set is Rattus norvegicus. The experiment in a line: Volume of distribution at steady state in Sprague-Dawley rat at 5 mg/kg, po. The format is ADME, organism-based. More on the design: dose 5 mg/kg, route oral. The following applies: in vivo.
The nature of data set [3]: Clearance in Sprague-Dawley rat at 5 mg/kg, po. The data set is classed as ADME, organism-based. Set-up: dose 5 mg/kg, route oral. The following applies: in vivo.
The target of another data set is Cytochrome P450 2D6 (Homo sapiens, UniProt P10635). The experiment in a line: Inhibition of CYP2D6. The data set is classed as ADME.
Sequence of Cytochrome P450 2D6 (P10635 whole entry): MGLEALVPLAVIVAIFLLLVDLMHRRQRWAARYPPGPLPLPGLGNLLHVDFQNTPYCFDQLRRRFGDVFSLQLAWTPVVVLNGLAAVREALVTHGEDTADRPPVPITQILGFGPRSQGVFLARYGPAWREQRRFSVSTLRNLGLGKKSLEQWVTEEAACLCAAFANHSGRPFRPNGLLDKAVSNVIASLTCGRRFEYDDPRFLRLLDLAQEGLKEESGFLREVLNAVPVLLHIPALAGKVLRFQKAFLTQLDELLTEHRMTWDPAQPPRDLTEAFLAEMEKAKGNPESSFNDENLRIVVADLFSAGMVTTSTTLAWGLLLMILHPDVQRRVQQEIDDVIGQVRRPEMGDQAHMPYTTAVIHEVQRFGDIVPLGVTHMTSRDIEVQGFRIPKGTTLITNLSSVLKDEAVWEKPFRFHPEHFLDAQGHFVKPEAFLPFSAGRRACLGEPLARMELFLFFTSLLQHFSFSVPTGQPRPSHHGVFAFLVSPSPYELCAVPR
The nature of data set [4]: Half life in Sprague-Dawley rat at 5 mg/kg, po. The settings on record: in vivo. Set-up: dose 5 mg/kg, route oral. The data set is classed as ADME, organism-based.
For data set [5], the target named is T3, C-X-C chemokine receptor type 3 (Homo sapiens, UniProt P49682).
T3 sequence (P49682 whole entry): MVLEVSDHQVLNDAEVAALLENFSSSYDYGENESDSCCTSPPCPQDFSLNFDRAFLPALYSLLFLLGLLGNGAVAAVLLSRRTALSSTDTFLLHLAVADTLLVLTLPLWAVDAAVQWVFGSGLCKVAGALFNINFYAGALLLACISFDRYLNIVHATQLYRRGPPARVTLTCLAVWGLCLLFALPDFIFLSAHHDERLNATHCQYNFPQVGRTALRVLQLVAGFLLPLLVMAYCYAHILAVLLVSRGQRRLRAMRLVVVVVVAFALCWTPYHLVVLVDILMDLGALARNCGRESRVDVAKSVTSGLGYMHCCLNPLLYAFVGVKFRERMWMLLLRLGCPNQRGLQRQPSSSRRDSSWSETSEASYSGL
The experiment in a line: Antagonist activity at human CXCR3. The format is functional.

The nature of data set [6]: AUC in Sprague-Dawley rat at 10 mg/kg, po after 6 hrs. The format is ADME, organism-based. More on the design: time < 6 hr, dose 10 mg/kg, route oral. The following applies: plasma.
A further data set concerns the target Cytochrome P450 2C19 (Homo sapiens, UniProt P33261). The experiment in a line: Inhibition of CYP2C19. The data set is classed as ADME.
Data set [7] can be described thus: AUC in Sprague-Dawley rat at 5 mg/kg, po after 24 hrs. The format is ADME, organism-based. Set-up: time < 24 hr, dose 5 mg/kg, route oral. The following applies: plasma.
The target of another data set is Cytochrome P450 3A4 (Homo sapiens, UniProt P08684). The experiment in a line: Inhibition of CYP3A4. The data set is classed as ADME.
Sequence of Cytochrome P450 3A4 (P08684 whole entry): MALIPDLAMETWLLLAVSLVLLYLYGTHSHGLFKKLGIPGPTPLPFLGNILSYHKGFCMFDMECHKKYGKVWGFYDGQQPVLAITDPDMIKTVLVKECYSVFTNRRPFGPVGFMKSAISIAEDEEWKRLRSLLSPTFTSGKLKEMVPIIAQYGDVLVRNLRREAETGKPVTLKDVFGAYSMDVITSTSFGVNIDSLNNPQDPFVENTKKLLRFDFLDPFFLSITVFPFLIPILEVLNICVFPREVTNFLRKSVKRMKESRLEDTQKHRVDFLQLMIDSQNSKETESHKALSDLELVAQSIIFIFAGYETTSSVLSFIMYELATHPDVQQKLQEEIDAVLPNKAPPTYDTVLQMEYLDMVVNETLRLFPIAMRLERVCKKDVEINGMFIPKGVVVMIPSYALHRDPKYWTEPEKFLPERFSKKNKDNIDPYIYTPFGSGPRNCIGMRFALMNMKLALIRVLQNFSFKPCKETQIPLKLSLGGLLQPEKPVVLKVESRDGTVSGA

Sequence of Cytochrome P450 2C19 (P33261 whole entry): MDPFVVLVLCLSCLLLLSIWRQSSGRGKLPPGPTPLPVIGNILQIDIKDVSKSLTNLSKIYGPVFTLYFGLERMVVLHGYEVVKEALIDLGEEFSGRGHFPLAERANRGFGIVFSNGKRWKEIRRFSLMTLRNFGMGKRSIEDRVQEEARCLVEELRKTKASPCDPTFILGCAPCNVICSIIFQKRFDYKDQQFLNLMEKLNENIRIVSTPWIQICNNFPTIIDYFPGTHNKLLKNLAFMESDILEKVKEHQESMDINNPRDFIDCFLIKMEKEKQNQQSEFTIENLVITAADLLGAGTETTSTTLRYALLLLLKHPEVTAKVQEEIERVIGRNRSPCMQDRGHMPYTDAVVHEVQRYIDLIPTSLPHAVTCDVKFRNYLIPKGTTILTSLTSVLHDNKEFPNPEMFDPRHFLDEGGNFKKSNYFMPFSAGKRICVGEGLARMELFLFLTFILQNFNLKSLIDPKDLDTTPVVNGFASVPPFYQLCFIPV

For `O=C(NCc1ccc(F)c(F)c1)c1cnc(N2CCN(C3CCN(Cc4ccc(Cl)cc4)CC3)CC2)c(Cl)c1`, the IC50 in data set [1] worked out at 84 nM; in data set [2], 97 nM.

Compound `C[C@H]1CN(c2ncc(C(=O)NCc3ccc(F)c(F)c3)cc2Cl)CCN1C1CCN(Cc2ccc(Cl)cc2)CC1` yielded a Vdss in the data set with Rattus norvegicus of 17.6 L/kg. In addition, in data set [3], the CL/F was 32.6 mL/min/kg. Further, the IC50 on Cytochrome P450 2D6 is more than 10 µM; in data set [1], 6.7 nM; in data set [5], 6 nM; in [2], 9.9 nM; against Cytochrome P450 2C19 it was more than 10 µM; against Cytochrome P450 3A4, more than 10 µM. Besides, the half-life in data set [4] is 408 min. In data set [6], this compound yielded an AUC at 6 h of 0.5 µM·h. In addition, in data set [7], the AUC at 24 h came to 1.1 µM·h.

As to `CCNC(=O)c1cnc(N2CCN(C3CCN(Cc4ccc(Cl)cc4F)CC3)[C@@H](CC)C2)c(Cl)c1`, the IC50 in data set [1] was determined as 1.1 nM; in [2] it was 1.6 nM. In data set [6], this compound registered an AUC at 6 h of 0.95 µM·h.

`CCNC(=O)c1cnc(N2CCN(C3CCN(Cc4ccc(Cl)cc4)CC3)[C@@H](CC)C2)c(Cl)c1`: the figures for the IC50 in [1], in data set [5] and in data set [2] were 0.5 nM, 0.3 nM and 1.2 nM, respectively. Moreover, in [6], the AUC at 6 h turned out to be 0.41 µM·h.

With `CNC(=O)c1cnc(N2CCN(C3CCN(C(C)c4ccc(Cl)cc4)CC3)[C@@H](C)C2)c(Cl)c1` (stereo in doubt; 6l), the concentration for half-maximal inhibition (IC50) in data set [5] was 110 nM.
